This is an account of results in patent US12534510B2, “Peptide-receptive MHC-I complex compositions and methods” (priority 2020, dated 2026).

The target of data set [1] is T1, H-2L^d/TAPBPR complex (Mus musculus, UniProt P01897).
T1 construct: Plasmid DNA encoding the luminal domain of class I MHC (MHC-I) heavy chains H-2D^d, HLA-A*02:01, H-2L^d; made in house; Drosophila S2 for TAPBPR
As to the kind of experiment: SEC TAPBPR binding assay with LC-MS peptide occupancy. The arrangement: species or system murine. Particulars: 10 mM Gly-Phe dipeptide (GF). The procedure: Complexes were resolved on an Superdex 200 10/300 increase column (GE healthcare) at a flow rate of 0.5 mL/min in 100 mM NaCl and 20 mM sodium phosphate pH 7.2 at room temperature. MHC-I/TAPBPR complexes eluted at 26.5 min.

Data set [2] concerns the target HLA-A*24:02/TAPBPR complex (Homo sapiens, UniProt P04439, D101N/D140Y/D185E/E176V/E190D/F33S/G103R/G107R/I119L/I121M/I306V/K335N/L105A/L180Q/L300P/N151K/N90K/Q86E/Q94H/R106L/R138H/R89G/T104I/T345S/V100E/W191G/Y123F). The data set can be described thus: Native gel dissociation of MHC-I/TAPBPR complex by peptide. The format is biochemical. Particulars: HLA-A*24:02 refolded with gNEF, 10-fold molar excess peptide.

Data set [3] has as its target H-2D^d (Mus musculus, UniProt P01900). Particulars: cited from earlier work.
Data set [4] has as its target H-2D^d/TAPBPR complex (Mus musculus, UniProt P01900).
Protocol: Peptide occupancy of SEC purified MHC-I was determined by HPLC separation on a Higgins PROTO300 C4 column (5 μm, 100 mm×21 mm) followed by electrospray ionisation performed on a Thermo Finnigan LC/MS/MS (LQT) instrument. Peptides were identified by extracting expected m/z ions from the chromatogram and deconvoluting the resulting spectrum in MagTran.
For data set [5], the target named is HLA-A*68:02/TAPBPR complex (Homo sapiens, UniProt P04439, A269V/D140Y/D185E/E176V/E277Q/E87N/F33Y/G231S/I121R/I166T/I218V/L180W/L300P/L318F/N151K/P208A/P217A/Q86R/R138H/R169H/S129P/T345S/V36M). As to the kind of experiment: Native gel dissociation of MHC-I/TAPBPR complex by peptide. The note with it: HLA-A*68:02 refolded with gTAX, 10-fold molar excess peptide. The class given is biochemical.

Data set [6] can be described thus: nanoDSF melting temperatures. The format is physicochemical. As to the method: In a volume of 20 μl, 1 μM peptide deficient HLA-A*02:01/TAPBPR was incubated with 20 μM of various peptides (FIG. 22) in a buffer of 20 mM sodium phosphate pH 7.2, 100 mM NaCl, 0.02% TWEEN-20 for at least one hour. 10 ul of each sample was loaded on the Prometheus NT.48 instrument (NanoTemper™) using the high sensitivity capillaries. NanoDSF™ measurements are performed using a temperature ramp rate of 1° C./min from 25° C. to 95° C. and an LED intensity of 20%. Data was analyzed using the PR Control software (NanoTemper™). Melting temperatures (Tm values) correspond to the inflection points of the first derivative of the 330/350 nm fluorescence ratio. Experiments were performed in duplicates and the shaded areas (FIG. 17b) are representative of the error.

Data set [7] deals with B4.2.3 TCR transgenic T cell line. The data set can be described thus: Tetramer staining by flow cytometry. The format is cell-based, murine. Details: dose or concentration left out as unconfirmed. The note with it: stoichiometric (1:1) or catalytic (1:100) TAPBPR:MHC ratio. On the technique in general: Flow cytometry measures light scatter and fluorescence of single cells or particles in a stream.

Turning to QLSPFPFDL [QL9], the “fate of bound peptide in the presence of TAPBPR” value (from here on “fate of bound peptide”) in data set [1] was “empty H-2L^d/TAPBPR complexes were obtained”. On to “RYPLTFGWCF (Sequence is synthesized) [Nef134-10]”, for which, in data set [2], the “effect of peptide on MHC-I/TAPBPR complex” value (from here on “effect of peptide”) is given as “complex dissociation”.

Take GPGRAFVTI [gP18-I10]: the “increase in the peptide off-rate relative to full-length P18-I10 peptide” value in data set [3] is reported as 100 fold. In addition, in data set [4], the “fate of bound peptide” value was “dissociated in the presence of TAPBPR”.

For “YPNVNIHNF (Sequence is synthesized) [p29, irrelevant, nonspecific peptide used as negative control]”, the “effect of peptide” value in data set [5] and in data set [2] was “remain bound” each time. Take “QYNPIRTTF (Sequence is synthesized) [PHOX2B]”: the “effect of peptide” value in data set [2] is recorded as “complex dissociation”. On to “TAPBPR: chaperone protein homologue of Tapasin, luminal domain expressed in Drosophila S2 cells”, for which the “Tm (nanoDSF inflection point)” value in data set [6] was determined as 52.5 °C. For the substance AGPARAAAL (Sequence is synthesized), in data set [7], the tetramer staining result is recorded as “No staining”.

As for PNVNIHNF, the “fate of bound peptide” value in data set [1] was “remained bound”.
